According to patent US8192962B2, “Processes for detecting toxic substances” (Daikin Industries, Ltd., priority 2001, dated 2012):

Test system: Transport facilitation protein genes
Assay: DNA chip mRNA expression in yeast, transport facilitation protein genes (Table 5)
Format: cell-based, Saccharomyces cerevisiae S288C
How it was run: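 Chemical exposure: 2 h, log-phase S. cerevisiae S288C, YPD, 25° C., dose set to inhibit growth without death. Profiling: mRNA labeled by reverse transcription with Cy3- or Cy5-dUTP, hybridized to whole-genome array. Output: fluorescence ratio against untreated culture.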

What does the source list for `CN(C)C(=S)SSC(=S)N(C)C` [(10), Tetramethylthiuram disulfide]?
The level of expressed mRNA in the presence of chemical substance/The level of expressed mRNA in the absence of chemical substance (yeast gene YGR281W): 1.4; The level of expressed mRNA in the presence of chemical substance/The level of expressed mRNA in the absence of chemical substance (yeast gene YHL035C): 4.6; The level of expressed mRNA in the presence of chemical substance/The level of expressed mRNA in the absence of chemical substance (yeast gene YHL036W): 4.4; The level of expressed mRNA in the presence of chemical substance/The level of expressed mRNA in the absence of chemical substance (yeast gene YHL040C): 11.3; The level of expressed mRNA in the presence of chemical substance/The level of expressed mRNA in the absence of chemical substance (yeast gene YHL047C): 11.9; The level of expressed mRNA in the presence of chemical substance/The level of expressed mRNA in the absence of chemical substance (yeast gene YHR026W): 0.9; The level of expressed mRNA in the presence of chemical substance/The level of expressed mRNA in the absence of chemical substance (yeast gene YHR092C): 0.9; The level of expressed mRNA in the presence of chemical substance/The level of expressed mRNA in the absence of chemical substance (yeast gene YHR094C): 1.2; The level of expressed mRNA in the presence of chemical substance/The level of expressed mRNA in the absence of chemical substance (yeast gene YHR175W): 2.0; The level of expressed mRNA in the presence of chemical substance/The level of expressed mRNA in the absence of chemical substance (yeast gene YIL006W): 1.1; The level of expressed mRNA in the presence of chemical substance/The level of expressed mRNA in the absence of chemical substance (yeast gene YIL022W): 1.3; The level of expressed mRNA in the presence of chemical substance/The level of expressed mRNA in the absence of chemical substance (yeast gene YIL056W): 1.6; The level of expressed mRNA in the presence of chemical substance/The level of expressed mRNA in the absence of chemical substance (yeast gene YIL088C): 1.7; The level of expressed mRNA in the presence of chemical substance/The level of expressed mRNA in the absence of chemical substance (yeast gene YJL034W): 1.1; The level of expressed mRNA in the presence of chemical substance/The level of expressed mRNA in the absence of chemical substance (yeast gene YJL212C): 1.3; The level of expressed mRNA in the presence of chemical substance/The level of expressed mRNA in the absence of chemical substance (yeast gene YJL219W): 2.3; The level of expressed mRNA in the presence of chemical substance/The level of expressed mRNA in the absence of chemical substance (yeast gene YJR077C): 0.7; The level of expressed mRNA in the presence of chemical substance/The level of expressed mRNA in the absence of chemical substance (yeast gene YJR106W): 1.6; The level of expressed mRNA in the presence of chemical substance/The level of expressed mRNA in the absence of chemical substance (yeast gene YJR121W): 1.3; The level of expressed mRNA in the presence of chemical substance/The level of expressed mRNA in the absence of chemical substance (yeast gene YKL016C): 1.8; The level of expressed mRNA in the presence of chemical substance/The level of expressed mRNA in the absence of chemical substance (yeast gene YKL146W): 2.8; The level of expressed mRNA in the presence of chemical substance/The level of expressed mRNA in the absence of chemical substance (yeast gene YKL188C): 2.8; The level of expressed mRNA in the presence of chemical substance/The level of expressed mRNA in the absence of chemical substance (yeast gene YKR039W): 2.0; The level of expressed mRNA in the presence of chemical substance/The level of expressed mRNA in the absence of chemical substance (yeast gene YKR067W): 2.3; The level of expressed mRNA in the presence of chemical substance/The level of expressed mRNA in the absence of chemical substance (yeast gene YLL028W): 2.3; The level of expressed mRNA in the presence of chemical substance/The level of expressed mRNA in the absence of chemical substance (yeast gene YLL055W): 14.0; The level of expressed mRNA in the presence of chemical substance/The level of expressed mRNA in the absence of chemical substance (yeast gene YLR081W): 2.2; The level of expressed mRNA in the presence of chemical substance/The level of expressed mRNA in the absence of chemical substance (yeast gene YLR295C): 1.2; The level of expressed mRNA in the presence of chemical substance/The level of expressed mRNA in the absence of chemical substance (yeast gene YLR348C): 1.3; The level of expressed mRNA in the presence of chemical substance/The level of expressed mRNA in the absence of chemical substance (yeast gene YLR378C): 0.7; The level of expressed mRNA in the presence of chemical substance/The level of expressed mRNA in the absence of chemical substance (yeast gene YMR011W): 0.7; The level of expressed mRNA in the presence of chemical substance/The level of expressed mRNA in the absence of chemical substance (yeast gene YMR058W): 1.4; The level of expressed mRNA in the presence of chemical substance/The level of expressed mRNA in the absence of chemical substance (yeast gene YMR162C): 1.0; The level of expressed mRNA in the presence of chemical substance/The level of expressed mRNA in the absence of chemical substance (yeast gene YMR203W): 1.2; The level of expressed mRNA in the presence of chemical substance/The level of expressed mRNA in the absence of chemical substance (yeast gene YNL055C): 1.0; The level of expressed mRNA in the presence of chemical substance/The level of expressed mRNA in the absence of chemical substance (yeast gene YNL259C): 2.1; The level of expressed mRNA in the presence of chemical substance/The level of expressed mRNA in the absence of chemical substance (yeast gene YNR072W): 1.8; The level of expressed mRNA in the presence of chemical substance/The level of expressed mRNA in the absence of chemical substance (yeast gene YOL119C): 7.4; The level of expressed mRNA in the presence of chemical substance/The level of expressed mRNA in the absence of chemical substance (yeast gene YOL156W): 2.1; The level of expressed mRNA in the presence of chemical substance/The level of expressed mRNA in the absence of chemical substance (yeast gene YOL163W): 6.2; The level of expressed mRNA in the presence of chemical substance/The level of expressed mRNA in the absence of chemical substance (yeast gene YOR035C): 1.7; The level of expressed mRNA in the presence of chemical substance/The level of expressed mRNA in the absence of chemical substance (yeast gene YOR130C): 1.7; The level of expressed mRNA in the presence of chemical substance/The level of expressed mRNA in the absence of chemical substance (yeast gene YOR153W): 1.2; The level of expressed mRNA in the presence of chemical substance/The level of expressed mRNA in the absence of chemical substance (yeast gene YOR270C): 0.9; The level of expressed mRNA in the presence of chemical substance/The level of expressed mRNA in the absence of chemical substance (yeast gene YOR273C): 0.5; The level of expressed mRNA in the presence of chemical substance/The level of expressed mRNA in the absence of chemical substance (yeast gene YOR316C): 2.0; The level of expressed mRNA in the presence of chemical substance/The level of expressed mRNA in the absence of chemical substance (yeast gene YOR332W): 1.1; The level of expressed mRNA in the presence of chemical substance/The level of expressed mRNA in the absence of chemical substance (yeast gene YOR348C): 0.4; The level of expressed mRNA in the presence of chemical substance/The level of expressed mRNA in the absence of chemical substance (yeast gene YPL036W): 0.3; The level of expressed mRNA in the presence of chemical substance/The level of expressed mRNA in the absence of chemical substance (yeast gene YPL134C): 0.8; The level of expressed mRNA in the presence of chemical substance/The level of expressed mRNA in the absence of chemical substance (yeast gene YPL265W): 1.2; The level of expressed mRNA in the presence of chemical substance/The level of expressed mRNA in the absence of chemical substance (yeast gene YPL271W): 1.2; The level of expressed mRNA in the presence of chemical substance/The level of expressed mRNA in the absence of chemical substance (yeast gene YPR124W): 1.5; The level of expressed mRNA in the presence of chemical substance/The level of expressed mRNA in the absence of chemical substance (yeast gene YPR192W): 1.3; The level of expressed mRNA in the presence of chemical substance/The level of expressed mRNA in the absence of chemical substance (yeast gene YPR194C): 0.6
